Laboratory results from PMC11995724, “Antibiotic target discovery by integrated phenotypic and activity-based profiling of electrophilic fragments” (Cell chemical biology, 2025).
Structures can show the parent of a compound that is named as a salt.

Assay: in vitro
Conditions: human, hek293t cells

Row | SMILES | viability at 48 h, 25 µM
1 | N#CC(=Cc1ccc(OC(F)F)cc1)C(=O)N1CCCc2ccccc21 [8-E03, 3-[4-(difluoromethoxy)phenyl]-2-(1,2,3,4-tetrahydroquinoline-1-carbonyl)prop-2-enenitrile] | 64.6%
2 | Cc1cccc(C)c1NC(=O)C(C#N)=Cc1c(C)n[nH]c1C [8-O20, 2-cyano-3-(3,5-dimethyl-1H-pyrazol-4-yl)-N-(2,6-dimethylphenyl)prop-2-enamide] | 51.4%
3 | C=CC(=O)Nc1cccc(-c2cn(C)nn2)c1 [1-K14, N-[3-(1-methyl-1H-1,2,3-triazol-4-yl)phenyl]prop-2-enamide] | 82.8%
4 | O=C(CCl)NCc1nn(-c2ccccc2)c2c1CCC2 [7-B06, 2-chloro-N-({1-phenyl-1H,4H,5H,6H-cyclopenta[c]pyrazol-3-yl}methyl)acetamide] | 0.565%
5 | C=CC(=O)N1CCC(c2nc(C3CCC3)no2)CC1 [2-O04, 1-[4-(3-cyclobutyl-1,2,4-oxadiazol-5-yl)piperidin-1-yl]prop-2-en-1-one] | 84.1%
6 | CC(Cl)C(=O)N1CCC(NS(=O)(=O)c2cccs2)CC1 (stereo not shown) [7-L07, N-[1-(2-chloropropanoyl)piperidin-4-yl]thiophene-2-sulfonamide] | 99.7%
7 | CN(C)C(=O)c1ccc(CNC(=O)CCl)cc1 [6-C16, 4-[(2-chloroacetamido)methyl]-N,N-dimethylbenzamide] | 67.8%
8 | C=CC(=O)NCC(C)c1ncc(C)s1 (stereo not shown) [1-P10, N-[2-(5-methyl-1,3-thiazol-2-yl)propyl]prop-2-enamide] | 43.9%
9 | C=CC(=O)N1CCCC1(COC)C(N)=O (stereo not shown) [3-K07, 2-(methoxymethyl)-1-(prop-2-enoyl)pyrrolidine-2-carboxamide] | 143%
10 | C=CC(=O)N(CC)CC(=O)N1CCNC(=O)CC1c1ccccc1 (stereo not shown) [3-E21, N-ethyl-N-[2-oxo-2-(5-oxo-7-phenyl-1,4-diazepan-1-yl)ethyl]prop-2-enamide] | 33.1%
11 | C=CC(=O)N(CC)CC(=O)N1CCC(c2nnc(C)o2)CC1 [3-A08, N-ethyl-N-{2-[4-(5-methyl-1,3,4-oxadiazol-2-yl)piperidin-1-yl]-2-oxoethyl}prop-2-enamide] | 66.3%
12 | O=C(CCl)c1ccncc1 [10-M09, 2-chloro-1-(pyridin-4-yl)ethan-1-one hydrochloride] | 79.1%
13 | C=CC(=O)NCc1n[nH]c(=O)n1C1CC1 [3-N08, N-[(4-cyclopropyl-5-oxo-4,5-dihydro-1H-1,2,4-triazol-3-yl)methyl]prop-2-enamide] | 80%
14 | COc1ccc(-n2c(C)cc(C(=O)CCl)c2C)cc1 [10-I12, 2-chloro-1-[1-(4-methoxyphenyl)-2,5-dimethyl-1H-pyrrol-3-yl]ethan-1-one] | 0.472%
15 | COc1ccc(C=C(C#N)C(=O)NC2CCCCC2)cc1O [8-H13, 2-cyano-N-cyclohexyl-3-(3-hydroxy-4-methoxyphenyl)prop-2-enamide] | 86.5%
16 | Cc1ccc(NC(=O)C(C)Cl)cc1S(=O)(=O)N1CCOCC1 (stereo not shown) [5-D22, 2-chloro-N-[4-methyl-3-(morpholine-4-sulfonyl)phenyl]propanamide] | 77.8%
17 | Cn1c(N)c(N2C(=O)C=CC2=O)c(=O)[nH]c1=O [10-P05, 6-amino-5-(2,5-dioxo-2,5-dihydro-1H-pyrrol-1-yl)-1-methyl-1,2,3,4-tetrahydropyrimidine-2,4-dione] | 124%
18 | CC(Cl)C(=O)N1CCN(C)C(c2nc(C3CC3)no2)C1 (stereo not shown) [7-I08, 2-chloro-1-[3-(3-cyclopropyl-1,2,4-oxadiazol-5-yl)-4-methylpiperazin-1-yl]propan-1-one] | 84.4%
19 | CSC1=C(C#N)C2(CCCCC2)C(C#N)=C(NC(=O)CCl)N1 [4-E10, 2-chloro-N-[1,5-dicyano-4-(methylsulfanyl)-3-azaspiro[5.5]undeca-1,4-dien-2-yl]acetamide] | 0.534%
20 | C=CC(=O)NCc1oc(CC)nc1C [3-P15, N-[(2-ethyl-4-methyl-1,3-oxazol-5-yl)methyl]prop-2-enamide] | 74.7%
21 | C=CC(=O)N1CSCC1C(=O)NCC1CC1 (stereo not shown) [1-P17, N-(cyclopropylmethyl)-3-(prop-2-enoyl)-1,3-thiazolidine-4-carboxamide] | 105%
22 | O=C(CCl)Nc1cccc(Oc2ccccc2)c1 [4-P19, 2-chloro-N-(3-phenoxyphenyl)acetamide] | 0.14%
23 | COc1cc(C)c(C=C(C#N)C(=O)Nc2ccc(C)cc2)cc1C(C)C [9-C04, 2-cyano-3-[4-methoxy-2-methyl-5-(propan-2-yl)phenyl]-N-(4-methylphenyl)prop-2-enamide] | 127%
24 | COc1ccc(C(=O)C(C)Cl)cc1 (stereo not shown) [10-H22, 2-chloro-1-(4-methoxyphenyl)propan-1-one] | 73.6%
25 | C=CC(=O)N1CCCC1Cn1c(C)nc2ccccc21 (stereo not shown) [1-J05, 1-{2-[(2-methyl-1H-1,3-benzodiazol-1-yl)methyl]pyrrolidin-1-yl}prop-2-en-1-one] | 149%
26 | C=CC(=O)NCc1ccnc(N2CCOCC2)c1 [1-C09, N-{[2-(morpholin-4-yl)pyridin-4-yl]methyl}prop-2-enamide] | 70.7%

Row | SMILES | viability at 48 h, 25 µM
27 | CN(C)S(=O)(=O)c1ccccc1CNC(=O)CCl [4-J22, 2-chloro-N-{[2-(dimethylsulfamoyl)phenyl]methyl}acetamide] | 1.7%
28 | Cc1ccc(C=C(C#N)C(N)=O)c(C)c1 [9-M04, 2-cyano-3-(2,4-dimethylphenyl)prop-2-enamide] | 115%
29 | CC(C)NC(=O)C(C#N)=Cc1cnn(-c2ccc(Cl)cc2)c1 [8-I08, 3-[1-(4-chlorophenyl)-1H-pyrazol-4-yl]-2-cyano-N-(propan-2-yl)prop-2-enamide] | 77.6%
30 | CC(Cl)C(=O)N1CCn2c(C#N)ccc2C1C (stereo not shown) [6-F22, 2-(2-chloropropanoyl)-1-methyl-1H,2H,3H,4H-pyrrolo[1,2-a]pyrazine-6-carbonitrile] | 98.2%
31 | CCn1cc(C2CN(C(=O)C(C)Cl)CCO2)cn1 (stereo not shown) [7-G08, 2-chloro-1-[2-(1-ethyl-1H-pyrazol-4-yl)morpholin-4-yl]propan-1-one] | 89.1%
32 | CCOC(=O)C(C#N)=Cc1ccc(N2C(=O)C=CC2=O)cc1 [10-N11, ethyl 2-cyano-3-[4-(2,5-dioxo-2,5-dihydro-1H-pyrrol-1-yl)phenyl]prop-2-enoate] | 93.1%
33 | O=C1C=CC(=O)N1CCc1ccccc1F [10-G03, 1-[2-(2-fluorophenyl)ethyl]-2,5-dihydro-1H-pyrrole-2,5-dione] | 11.2%
34 | C=CC(=O)N1CCC(C(=O)N2CCCC(O)C2)(c2ccccc2)CC1 (stereo not shown) [2-P06, 1-[4-(3-hydroxypiperidine-1-carbonyl)-4-phenylpiperidin-1-yl]prop-2-en-1-one] | 93.3%
35 | C=CC(=O)NCC1CCOC1 (stereo not shown) [1-H08, N-[(oxolan-3-yl)methyl]prop-2-enamide] | 69.4%
36 | C=CC(=O)N(C)CC(=O)NCc1c(O)nnc(C)c1C [2-I20, N-({[(3-hydroxy-5,6-dimethylpyridazin-4-yl)methyl]carbamoyl}methyl)-N-methylprop-2-enamide] | 91.6%
37 | CCOc1ccc(NC(=O)C(C)Cl)cc1 (stereo not shown) [6-O09, 2-chloro-N-(4-ethoxyphenyl)propanamide] | 89.5%
38 | O=C(CCl)NC1CCCc2cn(C3CCCC3)nc21 (stereo not shown) [5-O09, 2-chloro-N-(2-cyclopentyl-4,5,6,7-tetrahydro-2H-indazol-7-yl)acetamide] | 20.7%
39 | CC(Cl)C(=O)Nc1cc(Cl)cc(Cl)c1 (stereo not shown) [4-D17, 2-chloro-N-(3,5-dichlorophenyl)propanamide] | 67.8%
40 | CC(NC(=O)C(C#N)=Cc1ccccc1)C12CC3CC(CC(C3)C1)C2 (stereo not shown) [8-N20, N-[1-(adamantan-1-yl)ethyl]-2-cyano-3-phenylprop-2-enamide] | 13.9%
41 | Cc1noc(C)c1CC(=O)N1CCN(C(=O)C(C)Cl)CC1 (stereo not shown) [6-F11, 2-chloro-1-{4-[2-(3,5-dimethyl-1,2-oxazol-4-yl)acetyl]piperazin-1-yl}propan-1-one] | 106%
42 | O=C(CCl)Nc1ccc(OC(F)F)cc1 [4-J10, 2-chloro-N-[4-(difluoromethoxy)phenyl]acetamide] | 1.07%
43 | CNc1ccc(C=C(C#N)C(=O)Nc2ccccc2F)cc1[N+](=O)[O-] [8-N09, 2-cyano-N-(2-fluorophenyl)-3-[4-(methylamino)-3-nitrophenyl]prop-2-enamide] | 110%
44 | COc1ccc(C(=O)C(C)Cl)c(OC)c1 (stereo not shown) [10-J17, 2-chloro-1-(2,4-dimethoxyphenyl)propan-1-one] | 91.9%
45 | N#CC(=Cc1ccc(O)c([N+](=O)[O-])c1)C(=O)NCc1ccccc1 [8-O05, N-benzyl-2-cyano-3-(4-hydroxy-3-nitrophenyl)prop-2-enamide] | 98.7%
46 | CC(=O)Nc1ccc(NC(=O)C(C)Cl)cc1 (stereo not shown) [5-N06, 2-chloro-N-(4-acetamidophenyl)propanamide] | 101%
47 | Cc1ccc(C)c(-c2cc(NC(=O)CCl)n(-c3ccccc3)n2)c1 [4-M14, 2-chloro-N-[3-(2,5-dimethylphenyl)-1-phenyl-1H-pyrazol-5-yl]acetamide] | 0.149%
48 | C=CC(=O)NC(C)c1ccc(Oc2ccccc2)c(F)c1 (stereo not shown) [2-H13, N-[1-(3-fluoro-4-phenoxyphenyl)ethyl]prop-2-enamide] | 68.8%
49 | N#CC(=Cc1ccccc1Cl)C(=O)Nc1ccc2c(c1)OCCO2 [8-F03, 3-(2-chlorophenyl)-2-cyano-N-(2,3-dihydro-1,4-benzodioxin-6-yl)prop-2-enamide] | 94.9%
50 | CC(Cl)C(=O)NC1(C(=O)Nc2ccccc2)CC1 (stereo not shown) [7-K14, 1-(2-chloropropanamido)-N-phenylcyclopropane-1-carboxamide] | 52%
51 | CC(c1cccc([N+](=O)[O-])c1)N(C)C(=O)CCl (stereo not shown) [6-G06, 2-chloro-N-methyl-N-[1-(3-nitrophenyl)ethyl]acetamide] | 1.19%
52 | N#CC(=Cc1ccc(F)c(F)c1)C(=O)NC1CCCCC1 [9-J22, 2-cyano-N-cyclohexyl-3-(3,4-difluorophenyl)prop-2-enamide] | 101%
